Source: patent US20150105252A1, “SUBSTITUTED PYRAZOLES AS HERBICIDES” (E I DU PONT DE NEMOURS AND COMPANY, priority 2013, published 2015)

Assays:
[1] = test system: Italian ryegrass; test: Test A preemergence; type: in vivo, Lolium multiflorum
Description: (§1) Seeds of plant species selected from barnyardgrass (Echinochloa crus-galli), kochia (Kochia scoparia), common ragweed (Ambrosia elation), Italian ryegrass (Lolium multiflorum), crabgrass, large (large crabgrass, Digitaria sanguinalis), foxtail, giant (giant foxtail, Setaria faberii), morningglory (Ipomoea spp.), pigweed (redroot pigweed, Amaranthus retroflexus), velvetleaf (Abutilon theophrasti), wheat (Triticum aestivum), and corn (Zea mays) were planted into a blend of loam soil and sand and treated preemergence with a directed soil spray using test chemicals formulated in a non-phytotoxic solvent mixture which included a surfactant.
(§2) At the same time, plants selected from these crop and weed species and also blackgrass (Alopecurus myosuroides), and galium (catchweed bedstraw, Galium aparine) were planted in pots containing the same blend of loam soil and sand and treated with postemergence applications of test chemicals formulated in the same manner. Plants ranged in height from 2 to 10 cm and were in the one- to two-leaf stage for the postemergence treatment. Treated plants and untreated controls were maintained in a greenhouse for approximately 10 days, after which time all treated plants were compared to untreated controls and visually evaluated for injury. Plant response ratings, summarized in Table A, are based on a 0 to 100 scale where 0 is no effect and 100 is complete control. A dash (-) response means no test result.

[2] = test system: kochia; test: Test A preemergence; type: in vivo, Kochia scoparia
Description: as §1, §2

[3] = test system: blackgrass; test: Test A postemergence; type: in vivo, Alopecurus myosuroides
Description: as §1, §2

[4] = test system: Italian ryegrass; test: Test A postemergence; type: in vivo, Lolium multiflorum
Description: as §1, §2

[5] = test system: barnyardgrass; test: Test B flood; type: in vivo, Echinochloa crus-galli; conditions: 250 g ai/ha, visual rating on 0 to 100 scale (0 no effect, 100 complete control), 13 to 15 days
Method in brief: (§3)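 Plants were grown to the 2-leaf stage and pots flooded to 3 cm above soil. Compounds were applied directly into the paddy water, with depth kept for the test. After 13–15 days in greenhouse, response was rated visually against controls on a 0 (no effect) to 100 (complete control) scale.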

[6] = test system: barnyardgrass; test: Test A postemergence; type: in vivo, Echinochloa crus-galli
Method in brief: (§4)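 Visual injury rating, 0–100 (0 no effect, 100 complete control), vs untreated controls ~10 days after treatment in greenhouse. Pre: directed soil spray on seeded loam/sand. Post: 2–10 cm plants, 1–2 leaf stage. Formulation: non-phytotoxic solvent mix + surfactant.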

[7] = test system: pigweed; test: Test A preemergence; type: in vivo, Amaranthus retroflexus; conditions: preemergence
Method in brief: as §4

[8] = test system: wheat; test: Test A postemergence; type: in vivo, Triticum aestivum
Method in brief: as §4

[9] = test system: foxtail, giant; test: Test A postemergence; type: in vivo, Setaria faberii
Method in brief: as §4

[10] = test system: rice; test: Test B flood; type: in vivo, Oryza sativa; conditions: 250 g ai/ha, visual rating on 0 to 100 scale (0 no effect, 100 complete control), 13 to 15 days
Method in brief: as §3

[11] = test system: corn; test: Test A postemergence; type: in vivo, Zea mays
Method in brief: as §4

[12] = test system: kochia; test: Test A postemergence; type: in vivo, Kochia scoparia
Description: as §1, §2

[13] = test system: pigweed; test: Test A postemergence; type: in vivo, Amaranthus retroflexus
Method in brief: as §4

[14] = test system: foxtail, giant; test: Test A preemergence; type: in vivo, Setaria faberii; conditions: preemergence
Method in brief: as §4

[15] = test system: common ragweed; test: Test A postemergence; type: in vivo, Ambrosia elation
Description: as §1, §2

[16] = test system: galium; test: Test A postemergence; type: in vivo, Galium aparine
Description: as §1, §2

[17] = test system: sedge, umbrella; test: Test B flood; type: in vivo, Cyperus difformis; conditions: 250 g ai/ha, visual rating on 0 to 100 scale (0 no effect, 100 complete control), 13 to 15 days
Method in brief: as §3

[18] = test system: common ragweed; test: Test A preemergence; type: in vivo, Ambrosia elation
Description: as §1, §2

[19] = test system: ducksalad; test: Test B flood; type: in vivo, Heteranthera limosa; conditions: 250 g ai/ha, visual rating on 0 to 100 scale (0 no effect, 100 complete control), 13 to 15 days
Method in brief: as §3

[20] = test system: barnyardgrass; test: Test A preemergence; type: in vivo, Echinochloa crus-galli; conditions: preemergence
Method in brief: as §4

[21] = 125 g ai/ha, visual injury, 0 to 100 scale, approx. 10 days
[22] = 500 g ai/ha, visual injury after approx. 10 days, 0 to 100 scale (0 no effect, 100 complete control)
[23] = Postemergence, 500 g ai/ha, 0 to 100 scale (0 no effect, 100 complete control)
[24] = postemergence, 125 g ai/ha, about 10 days, visual rating on 0 to 100 scale (0 no effect, 100 complete control)

CCc1cc(C(=O)NCC(F)(F)F)nn1Cc1cc(C(F)(F)F)no1 [Compound 123]
60: Barnyardgrass plant response rating [6, 23] | Corn plant response rating [11, 23] | Plant response rating, Sedge, Umbrella [17] | Plant response rating, Ducksalad [19]
80: Galium plant response rating [16, 23]
0: Italian Ryegrass plant response rating [1, 21] | Barnyardgrass plant response rating [6, 24] | Wheat plant response rating [8, 24] | Foxtail, Giant plant response rating [9, 24] | Barnyardgrass plant response rating [20, 21]
30: Italian Ryegrass plant response rating [1, 22] | Italian Ryegrass plant response rating [4, 23]
100: Kochia plant response rating [2, 22] | Pigweed plant response rating [7, 22] | Pigweed plant response rating [13, 23] | Foxtail, Giant plant response rating [14, 22] | Barnyardgrass plant response rating [20, 22]
70: Pigweed plant response rating [7, 21] | Pigweed plant response rating [13, 24]
40: Common Ragweed plant response rating [15, 23]
50: Blackgrass plant response rating [3, 23] | Kochia plant response rating [12, 24] | Common Ragweed plant response rating [18, 22]
90: Foxtail, Giant plant response rating [9, 23] | Kochia plant response rating [12, 23]
20: Plant response rating, Barnyardgrass [5] | Corn plant response rating [11, 24] | Foxtail, Giant plant response rating [14, 21]
10: Kochia plant response rating [2, 21] | Blackgrass plant response rating [3, 24] | Italian Ryegrass plant response rating [4, 24] | Wheat plant response rating [8, 23] | Plant response rating, Rice [10] | Common Ragweed plant response rating [15, 24] | Galium plant response rating [16, 24] | Common Ragweed plant response rating [18, 21]
